Where two headings read alike, the source gives them in different places.
Key:
[1] = tested on: HEK293 embryonic kidney cells; assay: MTT cell viability assay, HEK293; format: cell-based; conditions: Homo sapiens, read-out: IC50 (μM) HEK-293
Description: The human neuroblastoma cell line SH-SY5Y (ATCC® CRL-2266™) and HEK293 (ATCC® CRL-1573™) human embryonic kidney cells were grown in Dulbecco's Modified Eagle Medium/Nutrient Mixture F-12 (DMEM/F-12) culture containing 10% heat-inactivated fetal bovine serum (FBS) and 1% antibiotics. The cells were incubated at 37 °C in a humidified atmosphere of 5% CO2. Both cell lines were provided by the American Type Culture Collection (ATCC).[30,31]
SH-SY5Y (ATCC® CRL-2266™) and HEK293 (ATCC® CRL-1573™) cells were seeded into 96-well plates at a density of 5 × 10^3 cells per well, and allowed to adhere overnight in a humidified incubator at 37 °C with 5% CO2. After attachment, the cells were treated with eight different concentrations of the target compounds (200, 100, 50, 25, 12.5, 6.25, 3.125, and 1.5625 μM), prepared via serial 1 : 2 dilutions, for 24 hours. Each concentration was tested in triplicate.
(§1) Following treatment, 10 μL of MTT solution (5 mg mL^−1 in PBS) was added to each well and incubated for an additional 4 hours under the same conditions. At the end of the incubation period, the medium containing MTT was carefully removed, and the formazan crystals formed by viable cells were solubilized in 100 μL of DMSO per well. The absorbance was measured at 570 nm using a microplate reader. The net absorbance (after blank subtraction) was used to calculate the percentage cell viability relative to the untreated control cells, which was set at 100%. All results were expressed as mean ± standard deviation (SD) of three independent experiments.[32,33]

BChE = BChE (Homo sapiens, UniProt P06276); assay: biochemical
AChE = AChE (Homo sapiens, UniProt P22303); assay: biochemical; format: biochemical
α-glucosidase = α-glucosidase (Saccharomyces cerevisiae, UniProt P53341); assay: α-Glucosidase inhibition assay (p-NPG substrate); format: biochemical, yeast
Description: For this assay, the yeast form of α-glucosidase was used and p-nitrophenyl-α-D-glycopyranoside (p-NPG) was used as the substrate. The required solutions of these materials were prepared in a phosphate buffer solution (pH of 7.4 and a concentration of 5 mM). […] Subsequently, a mixture containing 200 μL of phosphate solution, 50 μL of the substrate, and 5–200 μL of the sample solution was pre-incubated at 35 °C for 3 min for α-glucosidase.

[2] = tested on: SH-SY5Y neuroblastoma cells; assay: MTT cell viability assay, SH-SY5Y; format: cell-based, human; conditions: for Selectivity (selectivity index): HEK293 versus SH-SY5Y; for IC50: read-out: IC50 (μM) SH-SY5Y
Description: The cells were incubated at 37 °C in a humidified atmosphere of 5% CO2. Both cell lines were provided by the American Type Culture Collection (ATCC).[30,31]
Each concentration was tested in triplicate.
as §1

[3] = HEK293, 24 h treatment, MTT, mean ± SD (n = 3)
[4] = Homo sapiens, SH-SY5Y, 24 h, 24 h treatment, MTT, mean ± SD (n = 3)
[5] = 24 h treatment, MTT, mean ± SD (n = 3)
[6] = read-out: IC50 (nM) α-Glucosidase

α-glucosidase, sequence (P53341 whole entry): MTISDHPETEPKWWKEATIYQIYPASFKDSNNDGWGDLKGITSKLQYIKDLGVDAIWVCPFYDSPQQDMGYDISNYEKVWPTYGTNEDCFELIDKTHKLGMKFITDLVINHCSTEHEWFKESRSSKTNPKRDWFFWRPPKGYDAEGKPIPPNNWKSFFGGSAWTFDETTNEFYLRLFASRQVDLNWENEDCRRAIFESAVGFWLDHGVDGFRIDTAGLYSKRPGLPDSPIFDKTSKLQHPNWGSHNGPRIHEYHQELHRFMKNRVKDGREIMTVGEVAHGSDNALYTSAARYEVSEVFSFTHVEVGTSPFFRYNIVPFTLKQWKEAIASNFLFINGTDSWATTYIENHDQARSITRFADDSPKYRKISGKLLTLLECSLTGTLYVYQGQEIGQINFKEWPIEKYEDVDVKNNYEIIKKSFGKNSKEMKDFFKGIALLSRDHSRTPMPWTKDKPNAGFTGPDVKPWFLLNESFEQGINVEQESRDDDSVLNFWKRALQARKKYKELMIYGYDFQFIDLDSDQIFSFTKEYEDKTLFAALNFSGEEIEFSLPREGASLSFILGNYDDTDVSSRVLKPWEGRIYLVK
BChE, sequence (P06276 29-602): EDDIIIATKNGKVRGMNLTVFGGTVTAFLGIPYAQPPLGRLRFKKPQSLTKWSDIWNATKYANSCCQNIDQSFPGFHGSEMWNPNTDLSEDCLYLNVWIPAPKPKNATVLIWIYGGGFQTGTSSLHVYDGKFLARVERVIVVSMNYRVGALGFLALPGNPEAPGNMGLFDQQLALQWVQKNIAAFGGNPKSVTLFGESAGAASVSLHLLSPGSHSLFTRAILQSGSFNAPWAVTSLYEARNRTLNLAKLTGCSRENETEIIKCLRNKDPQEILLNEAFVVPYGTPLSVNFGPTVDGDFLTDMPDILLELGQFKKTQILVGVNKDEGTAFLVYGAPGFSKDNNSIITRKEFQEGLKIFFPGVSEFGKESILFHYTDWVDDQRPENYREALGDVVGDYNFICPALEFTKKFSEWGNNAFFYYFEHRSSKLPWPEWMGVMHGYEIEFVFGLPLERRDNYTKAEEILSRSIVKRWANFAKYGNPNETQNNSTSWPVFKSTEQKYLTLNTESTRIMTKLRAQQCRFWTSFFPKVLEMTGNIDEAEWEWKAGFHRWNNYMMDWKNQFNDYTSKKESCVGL
AChE, sequence (P22303 32-614): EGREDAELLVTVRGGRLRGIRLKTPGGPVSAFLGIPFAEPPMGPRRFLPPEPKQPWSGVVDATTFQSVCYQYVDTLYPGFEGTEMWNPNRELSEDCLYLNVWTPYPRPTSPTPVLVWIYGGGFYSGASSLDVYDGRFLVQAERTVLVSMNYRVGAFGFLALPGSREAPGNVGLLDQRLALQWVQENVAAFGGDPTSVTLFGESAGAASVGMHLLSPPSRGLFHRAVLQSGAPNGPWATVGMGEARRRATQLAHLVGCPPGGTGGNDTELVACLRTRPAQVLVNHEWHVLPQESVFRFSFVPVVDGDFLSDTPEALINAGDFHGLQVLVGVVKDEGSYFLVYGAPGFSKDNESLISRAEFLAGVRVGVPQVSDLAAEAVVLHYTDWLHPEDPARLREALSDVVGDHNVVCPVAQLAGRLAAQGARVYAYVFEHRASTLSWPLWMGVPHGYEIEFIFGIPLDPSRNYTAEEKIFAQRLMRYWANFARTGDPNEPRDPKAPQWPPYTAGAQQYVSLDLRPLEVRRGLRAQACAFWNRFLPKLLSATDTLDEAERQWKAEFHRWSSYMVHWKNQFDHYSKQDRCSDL

## Cc1ccccc1NC(=O)Cn1cc(COc2ccc(/C=N/N=C/c3ccc(OCc4cn(CC(=O)Nc5ccccc5C)nn4)cc3)cc2)nn1 [Compound 10a, 2,2′-((((((1E,1′E)-Hydrazine-1,2-diylidenebis(methaneylylidene))bis(4,1-phenylene))bis(oxy))bis(methylene))bis(1H-1,2,3-triazole-4,1-diyl))bis(N-(o-tolyl)acetamide)]
[1]; [3]
  IC50: 78.21 ± 0.42 µM
BChE
  IC50: 18.4 ± 3.09 nM
AChE; read-out: IC50 (nM) AChE
  IC50: 163 ± 5.38 nM
α-glucosidase
  IC50: 43.1 ± 8.21 nM
[2]
  Selectivity (selectivity index): 9.5
[2]; [4]
  IC50: 8.22 ± 0.12 µM

## Cc1cccc(NC(=O)Cn2cc(COc3ccc(/C=N/N=C/c4ccc(OCc5cn(CC(=O)Nc6cccc(C)c6)nn5)cc4)cc3)nn2)c1 [Compound 10b, 2,2′-((((((1E,1′E)-Hydrazine-1,2-diylidenebis(methaneylylidene))bis(4,1-phenylene))bis(oxy))bis(methylene))bis(1H-1,2,3-triazole-4,1-diyl))bis(N-(m-tolyl)acetamide)]
[1]; [3]
  IC50: 43.42 ± 0.36 µM
BChE
  IC50: 18.3 ± 4.84 nM
AChE; read-out: IC50 (nM) AChE
  IC50: 167 ± 9.46 nM
α-glucosidase
  IC50: 62.1 ± 5.43 nM
[2]
  Selectivity (selectivity index): 2.7
[2]; [4]
  IC50: 15.8 ± 0.2 µM

## Cc1ccc(NC(=O)Cn2cc(COc3ccc(/C=N/N=C/c4ccc(OCc5cn(CC(=O)Nc6ccc(C)cc6)nn5)cc4)cc3)nn2)cc1 [Compound 10c, 2,2′-((((((1E,1′E)-Hydrazine-1,2-diylidenebis(methaneylylidene))bis(4,1-phenylene))bis(oxy))bis(methylene))bis(1H-1,2,3-triazole-4,1-diyl))bis(N-(p-tolyl)acetamide)]
[1]; [3]
  IC50: 46.91 ± 0.32 µM
BChE
  IC50: 17.1 ± 3.21 nM
AChE; read-out: IC50 (nM) AChE
  IC50: 164 ± 9.7 nM
α-glucosidase
  IC50: 67 ± 7.88 nM
[2]; [5]
  IC50: 11.9 ± 0.2 µM
[2]
  Selectivity (selectivity index): 3.9
[2]; [4]
  IC50: 12 to 16 µM

## Cc1cccc(NC(=O)Cn2cc(COc3ccc(/C=N/N=C/c4ccc(OCc5cn(CC(=O)Nc6cccc(C)c6C)nn5)cc4)cc3)nn2)c1C [Compound 10d, 2,2′-((((((1E,1′E)-Hydrazine-1,2-diylidenebis(methaneylylidene))bis(4,1-phenylene))bis(oxy))bis(methylene))bis(1H-1,2,3-triazole-4,1-diyl))bis(N-(2,3-dimethylphenyl)acetamide)]
[1]; [3]
  IC50: 75.22 ± 0.35 µM
BChE
  IC50: 14.9 ± 2.08 nM
AChE; read-out: IC50 (nM) AChE
  IC50: 131 ± 7.23 nM
α-glucosidase
  IC50: 71.2 ± 8.14 nM
[2]; [5]
  IC50: 16.4 ± 0.21 µM
[2]
  Selectivity (selectivity index): 4.6
[2]; [4]
  IC50: 12 to 16 µM

## COc1ccc(NC(=O)Cn2cc(COc3ccc(/C=N/N=C/c4ccc(OCc5cn(CC(=O)Nc6ccc(OC)cc6OC)nn5)cc4)cc3)nn2)c(OC)c1 [Compound 10e, 2,2′-((((((1E,1′E)-Hydrazine-1,2-diylidenebis(methaneylylidene))bis(4,1-phenylene))bis(oxy))bis(methylene))bis(1H-1,2,3-triazole-4,1-diyl))bis(N-(2,4-dimethoxyphenyl)acetamide)]
[1]; [3]
  IC50: 68.95 ± 0.41 µM
BChE
  IC50: 16.3 ± 2.09 nM
AChE; read-out: IC50 (nM) AChE
  IC50: 140 ± 9.43 nM
α-glucosidase
  IC50: 58.5 ± 4.27 nM
[2]; [5]
  IC50: 33.19 ± 0.25 µM
[2]
  Selectivity (selectivity index): 2.1
[2]; [4]
  IC50: > 30 µM

## CCc1ccc(NC(=O)Cn2cc(COc3ccc(/C=N/N=C/c4ccc(OCc5cn(CC(=O)Nc6ccc(CC)cc6)nn5)cc4)cc3)nn2)cc1 [Compound 10f, 2,2′-((((((1E,1′E)-Hydrazine-1,2-diylidenebis(methaneylylidene))bis(4,1-phenylene))bis(oxy))bis(methylene))bis(1H-1,2,3-triazole-4,1-diyl))bis(N-(4-ethylphenyl)acetamide)]
[1]; [3]
  IC50: 33.2 ± 0.55 µM
BChE
  IC50: 17 ± 5.46 nM
AChE; read-out: IC50 (nM) AChE
  IC50: 159 ± 6.17 nM
α-glucosidase
  IC50: 66.4 ± 4.43 nM
[2]
  Selectivity (selectivity index): 4.5
[2]; [4]
  IC50: 7.33 ± 0.11 µM

## O=C(Cn1cc(COc2ccc(/C=N/N=C/c3ccc(OCc4cn(CC(=O)Nc5ccccc5F)nn4)cc3)cc2)nn1)Nc1ccccc1F [Compound 10g, 2,2′-((((((1E,1′E)-Hydrazine-1,2-diylidenebis(methaneylylidene))bis(4,1-phenylene))bis(oxy))bis(methylene))bis(1H-1,2,3-triazole-4,1-diyl))bis(N-(2-fluorophenyl)acetamide)]
[1]; [3]
  IC50: 86.45 ± 0.52 µM
BChE
  IC50: 12.4 ± 3.21 nM
AChE; read-out: IC50 (nM) AChE
  IC50: 112 ± 9.6 nM
α-glucosidase
  IC50: 56.7 ± 6.34 nM
[2]
  Selectivity (selectivity index): 6.7
[2]; [4]
  IC50: 12.9 ± 0.13 µM

## O=C(Cn1cc(COc2ccc(/C=N/N=C/c3ccc(OCc4cn(CC(=O)Nc5cccc(Cl)c5)nn4)cc3)cc2)nn1)Nc1cccc(Cl)c1 [Compound 10i, 2,2′-((((((1E,1′E)-Hydrazine-1,2-diylidenebis(methaneylylidene))bis(4,1-phenylene))bis(oxy))bis(methylene))bis(1H-1,2,3-triazole-4,1-diyl))bis(N-(3-chlorophenyl)acetamide)]
[1]; [3]
  IC50: 37.4 ± 0.55 µM
BChE
  IC50: 15.3 ± 3.16 nM
AChE; read-out: IC50 (nM) AChE
  IC50: 164 ± 9.54 nM
α-glucosidase
  IC50: 45.8 ± 4.71 nM
[2]
  Selectivity (selectivity index): 8.8
[2]; [4]
  IC50: 4.26 ± 0.08 µM

## O=C(Cn1cc(COc2ccc(/C=N/N=C/c3ccc(OCc4cn(CC(=O)Nc5ccc(Cl)cc5)nn4)cc3)cc2)nn1)Nc1ccc(Cl)cc1 [Compound 10j, 2,2′-((((((1E,1′E)-Hydrazine-1,2-diylidenebis(methaneylylidene))bis(4,1-phenylene))bis(oxy))bis(methylene))bis(1H-1,2,3-triazole-4,1-diyl))bis(N-(4-chlorophenyl)acetamide)]
[1]; [3]
  IC50: 67.43 ± 0.47 µM
BChE
  IC50: 16.4 ± 4.43 nM
AChE; read-out: IC50 (nM) AChE
  IC50: 145 ± 6.23 nM
AChE; removal of 2-chloro substituent, versus 10k
  fold diminished anti-AChE inhibitory activity relative to 10k: 1.3 fold
α-glucosidase
  IC50: 34.3 ± 3.49 nM
α-glucosidase; relative to acarbose
  folds more potent than the standard inhibitor acarbose against α-glucosidase: 1.7 fold
[2]
  Selectivity (selectivity index): 10.0
[2]; [4]
  IC50: 6.75 ± 0.18 µM

## O=C(Cn1cc(COc2ccc(/C=N/N=C/c3ccc(OCc4cn(CC(=O)Nc5ccc(Br)cc5)nn4)cc3)cc2)nn1)Nc1ccc(Br)cc1 [Compound 10l, 2,2′-((((((1E,1′E)-Hydrazine-1,2-diylidenebis(methaneylylidene))bis(4,1-phenylene))bis(oxy))bis(methylene))bis(1H-1,2,3-triazole-4,1-diyl))bis(N-(4-bromophenyl)acetamide)]
[1]; [3]
  IC50: 92.86 ± 0.71 µM
BChE
  IC50: 16.4 ± 4.74 nM
AChE; read-out: IC50 (nM) AChE
  IC50: 148 ± 8.23 nM
α-glucosidase
  IC50: 39.1 ± 5.1 nM
[2]; [5]
  IC50: 42.15 ± 0.37 µM
[2]
  Selectivity (selectivity index): 2.2
[2]; [4]
  IC50: > 30 µM

## O=C(Cn1cc(COc2ccc(/C=N/N=C/c3ccc(OCc4cn(CC(=O)Nc5ccccc5[N+](=O)[O-])nn4)cc3)cc2)nn1)Nc1ccccc1[N+](=O)[O-] [Compound 10m, 2,2′-((((((1E,1′E)-Hydrazine-1,2-diylidenebis(methaneylylidene))bis(4,1-phenylene))bis(oxy))bis(methylene))bis(1H-1,2,3-triazole-4,1-diyl))bis(N-(2-nitrophenyl)acetamide)]
[1]; HEK293, 24 h
  IC50: 46.45 ± 0.45 µM
BChE
  IC50: 16.9 ± 4.83 nM
AChE
  IC50: 157 ± 8.65 nM
α-glucosidase; [6]
  IC50: 36.6 ± 4.86 nM
[2]
  Selectivity (selectivity index): 1.6
[2]; Homo sapiens, SH-SY5Y, 24 h
  IC50: 28.33 ± 0.26 µM

## O=C(Cn1cc(COc2ccc(/C=N/N=C/c3ccc(OCc4cn(CC(=O)Nc5ccc([N+](=O)[O-])cc5)nn4)cc3)cc2)nn1)Nc1ccc([N+](=O)[O-])cc1 [Compound 10n, 2,2′-((((((1E,1′E)-Hydrazine-1,2-diylidenebis(methaneylylidene))bis(4,1-phenylene))bis(oxy))bis(methylene))bis(1H-1,2,3-triazole-4,1-diyl))bis(N-(4-nitrophenyl)acetamide)]
[1]; HEK293, 24 h
  IC50: 38.42 ± 0.19 µM
BChE
  IC50: 13.9 ± 4.3 nM
AChE
  IC50: 173 ± 9.71 nM
α-glucosidase; [6]
  IC50: 65.1 ± 6.01 nM
[2]
  Selectivity (selectivity index): 7.4
[2]; Homo sapiens, SH-SY5Y, 24 h
  IC50: 5.22 ± 0.12 µM

## CNC(=O)c1cc(Oc2ccc(NC(=O)Nc3ccc(Cl)c(C(F)(F)F)c3)cc2)ccn1 [Sorafenib, reference compound]
[1]; [3]
  IC50: 16.22 ± 0.14 µM
[2]; [4]
  IC50: 3.88 ± 0.12 µM
